The source of these data is patent US20220324835A1 (Nurix Therapeutics, Inc., priority 2018, published 2022).

Bounds are passed on as bounds.

For experiment [1], the system named is T-cell. In words: CD25 cell surface staining on T-cells stimulated with anti-CD3 antibody alone (Biological Example 2). The settings on record: Homo sapiens, T-cell; 1 μM Cbl-b inhibitor; fold change over baseline (anti-CD3/anti-CD28 stimulated T-cells without inhibitor); read-out: CD25 staining Anti-CD3 stimulation. Format: cell-based, human.
Experiment [2] deals with T-cell. Briefly: CD25 cell surface staining on T-cells co-stimulated with anti-CD3 and anti-CD28 antibody (Biological Example 2). Format: cell-based, human. The following applies: Homo sapiens, T-cell, fold change over baseline (anti-CD3/anti-CD28 stimulated T-cells without inhibitor), read-out: CD25 staining Anti-CD3/Anti-CD28 stimulation; for fold induction at 0.3 µM: 0.3 μM Cbl-b inhibitor; for fold induction at 1 µM: 1 μM Cbl-b inhibitor. An outline of the steps:
(§1)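 No assay protocol given; T-cells stimulated with anti-CD3 alone or anti-CD3 plus anti-CD28, with or without Cbl-b inhibitor. Activation read as IL-2 secretion or CD25 surface staining, expressed as fold over baseline from uninhibited cells […].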

Experiment [3] has as its system T-cell. Briefly: IL-2 secretion from T-cells co-stimulated with anti-CD3 and anti-CD28 antibody (Biological Example 2). It counts as cell-based, human. The settings on record: Homo sapiens, T-cell, fold change over baseline (anti-CD3/anti-CD28 stimulated T-cells without inhibitor), read-out: IL-2 secretion Anti-CD3/Anti-CD28 stimulation; for fold induction at 0.3 µM: 0.3 μM Cbl-b inhibitor; for fold induction at 1 µM: 1 μM Cbl-b inhibitor. In a few lines:
as §1

Experiment [4] deals with T1, Cbl-b (Homo sapiens, UniProt Q13191). Briefly: Cbl-b inhibition assay (Cbl-b activity assay, FRET, Biological Example 1; 100 mM NaCl, 60 nM Src kinase). It counts as biochemical. The following applies: upper bound stated in text lists; read-out: IC50 values in the Cbl-b inhibition assay of Biological Example 1. An outline of the steps: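 Steps: Src kinase phosphorylates N-terminal biotinylated Avi-tagged Cbl-b; phosphorylated Cbl-b binds Bodipy-fluorescein ubiquitin-loaded UbcH5B; streptavidin-terbium on Cbl-b sits close to the fluorescein label, producing FRET. Inhibitors block UbcH5B-Ub binding.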

Experiment [5] concerns T-cell. Briefly: IL-2 secretion from T-cells stimulated with anti-CD3 antibody alone (Biological Example 2). Format: cell-based, human. The settings on record: Homo sapiens, T-cell; 1 μM Cbl-b inhibitor; fold change over baseline (anti-CD3/anti-CD28 stimulated T-cells without inhibitor); read-out: IL-2 secretion Anti-CD3 stimulation.
Experiment [6] has as its target T1, Cbl-b. Briefly: Cbl-b activity assay (Cbl-b inhibition assay), TR-FRET of Cbl-b interaction with UbcH5B-Ub. It counts as biochemical. The following applies: assay buffer with 100 mM NaCl, 60 nM Src kinase; read-out: Cbl-b activity IC50. In a few lines:
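TR-FRET readout of Cbl-b binding to Bodipy-fluorescein N-terminally labeled Ub conjugated to UbcH5B C85K, measured with compound present. After compound incubation, 60 nM Src kinase with 1 mM ATP and 5 mM MgCl2 (final) was added for 1.5 h, then a further 1 h incubation; asterisked values used 50 mM NaCl buffer and 30 nM Src.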
(In general: Time-resolved FRET reads energy transfer from a long-lived donor to a nearby acceptor.)

T1 sequence (Q13191 36-427): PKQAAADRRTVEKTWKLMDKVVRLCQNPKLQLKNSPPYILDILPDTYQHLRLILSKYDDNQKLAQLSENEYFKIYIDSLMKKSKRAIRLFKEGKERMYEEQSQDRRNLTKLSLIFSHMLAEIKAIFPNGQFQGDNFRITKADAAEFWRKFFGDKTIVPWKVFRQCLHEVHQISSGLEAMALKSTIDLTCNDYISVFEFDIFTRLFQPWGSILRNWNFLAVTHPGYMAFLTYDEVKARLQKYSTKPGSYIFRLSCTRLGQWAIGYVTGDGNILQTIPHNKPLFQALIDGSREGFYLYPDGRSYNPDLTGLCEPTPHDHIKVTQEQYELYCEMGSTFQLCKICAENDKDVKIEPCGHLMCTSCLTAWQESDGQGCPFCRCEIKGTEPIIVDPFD

Usually IC50 stands for the concentration that gives 50% inhibition. For the molecule `Cc1nc2c(o1)CCN(Cc1cc3c(c(C(F)(F)F)c1)CN(c1cccc(C4(Cc5nncn5C)COC4)c1)C3=O)C2` [Example 649, 2-(3-(3-((4-methyl-4H-1,2,4-triazol-3-yl)methyl)oxetan-3-yl)phenyl)-6-((2-methyl-6,7-dihydrooxazolo[4,5-c]pyridin-5(4H)-yl)methyl)-4-(trifluoromethyl)isoindolin-1-one], the fold induction at 1 µM was more than 1 in the experiment on T-cell [1], 1.31 to 1.5 in the experiment with T-cell [2], more than 7.5 in the experiment with T-cell [3] and more than 0.201 in the experiment on T-cell [5]. In addition, the fold induction at 0.3 µM in the experiment with T-cell [2] lay in the range of 1.01 to 1.3; with T-cell [3], 5 to 7.5. In addition, the IC50 at Cbl-b [4] was not above 0.1 µM; on Cbl-b [6], less than 0.1 µM.

In the case of `Cn1cnnc1CC1(c2cccc(N3Cc4c(cc(CN5CCc6ccccc6C5)cc4C(F)(F)F)C3=O)c2)COC1` [Example 650, 6-((3,4-dihydroisoquinolin-2(1H)-yl)methyl)-2-(3-(3-((4-methyl-4H-1,2,4-triazol-3-yl)methyl)oxetan-3-yl)phenyl)-4-(trifluoromethyl)isoindolin-1-one], the fold induction at 1 µM is more than 1 with T-cell [1], 1.31 to 1.5 in the experiment on T-cell [2], more than 7.5 in the experiment on T-cell [3] and more than 0.201 with T-cell [5]. Also, the fold induction at 0.3 µM in the experiment on T-cell [2] was in the range of 1.01 to 1.3; in the experiment with T-cell [3], 5 to 7.5. In addition, the IC50 was not above 0.1 µM at Cbl-b [4] and less than 0.1 µM at Cbl-b [6].

Take `Cn1cnnc1CC1(c2cccc(N3Cc4c(cc(CN5CCCc6c5cnn6C)cc4C(F)(F)F)C3=O)c2)COC1` [Example 651]: the fold induction at 1 µM in the experiment on T-cell [1] was more than 1; in the experiment on T-cell [2], 1.01 to 1.3; with T-cell [3], more than 7.5; in the experiment with T-cell [5] it was more than 0.201. Further, the fold induction at 0.3 µM with T-cell [2] lay within 1.01 to 1.3; in the experiment on T-cell [3] it was 5 to 7.5. Further, the IC50 is not above 0.1 µM on Cbl-b [4] and less than 0.1 µM at Cbl-b [6].

For `Cn1cnnc1CC1(c2cccc(N3Cc4c(cc(CN5Cc6cccc(F)c6C5)cc4C(F)(F)F)C3=O)c2)COC1` [Example 653, 6-((4-fluoroisoindolin-2-yl)methyl)-2-(3-(3-((4-methyl-4H-1,2,4-triazol-3-yl)methyl)oxetan-3-yl)phenyl)-4-(trifluoromethyl)isoindolin-1-one], the fold induction at 1 µM in the experiment on T-cell [1] was more than 1; in the experiment with T-cell [2], 1.31 to 1.5; in the experiment with T-cell [3], more than 7.5; in the experiment with T-cell [5], more than 0.201. Moreover, the results for the fold induction at 0.3 µM in the experiment with T-cell [2] and with T-cell [3] were 1.31 to 1.5 and 2.51 to 5, respectively. Besides, the IC50 was not above 0.1 µM at Cbl-b [4] and less than 0.1 µM at Cbl-b [6].

As for `Cn1cnnc1CC1(c2cccc(N3Cc4c(cc(CN5Cc6ccccc6C5)cc4C(F)(F)F)C3=O)c2)COC1` [Example 654, 6-(isoindolin-2-ylmethyl)-2-(3-(3-((4-methyl-4H-1,2,4-triazol-3-yl)methyl)oxetan-3-yl)phenyl)-4-(trifluoromethyl)isoindolin-1-one], the fold induction at 1 µM in the experiment on T-cell [1] is more than 1; with T-cell [2], 1.31 to 1.5; in the experiment on T-cell [3], more than 7.5; in the experiment with T-cell [5] it was more than 0.201. For the same molecule, the fold induction at 0.3 µM fell in the range of 1.31 to 1.5 in the experiment with T-cell [2] and 5 to 7.5 in the experiment on T-cell [3]. The IC50 at Cbl-b [4] is not above 0.1 µM; on Cbl-b [6], less than 0.1 µM.

Regarding `Cn1cnnc1CC1(c2cccc(N3Cc4c(cc(CN5Cc6ccc(F)cc6C5)cc4C(F)(F)F)C3=O)c2)COC1` [Example 655, 6-((5-fluoroisoindolin-2-yl)methyl)-2-(3-(3-((4-methyl-4H-1,2,4-triazol-3-yl)methyl)oxetan-3-yl)phenyl)-4-(trifluoromethyl)isoindolin-1-one], the fold induction at 1 µM in the experiment with T-cell [1] is more than 1; with T-cell [2], 1.31 to 1.5; in the experiment with T-cell [3] it was more than 7.5; in the experiment with T-cell [5] it was more than 0.201. Besides, the figures for the fold induction at 0.3 µM in the experiment on T-cell [2] and in the experiment on T-cell [3] were 1.31 to 1.5 and 5 to 7.5, respectively. Besides, the IC50 on Cbl-b [4] was not above 0.1 µM; at Cbl-b [6] it was less than 0.1 µM.

With `COc1ccc2c(c1)CN(Cc1cc3c(c(C(F)(F)F)c1)CN(c1cccc(C4(Cc5nncn5C)COC4)c1)C3=O)C2` [Example 656, 6-((5-methoxyisoindolin-2-yl)methyl)-2-(3-(3-((4-methyl-4H-1,2,4-triazol-3-yl)methyl)oxetan-3-yl)phenyl)-4-(trifluoromethyl)isoindolin-1-one], the fold induction at 1 µM with T-cell [1] is more than 1; in the experiment with T-cell [2], 1.31 to 1.5; in the experiment with T-cell [3], more than 7.5; in the experiment on T-cell [5], more than 0.201. The fold induction at 0.3 µM with T-cell [2] is 1.31 to 1.5; in the experiment with T-cell [3], more than 7.5. Moreover, the IC50 is not above 0.1 µM at Cbl-b [4] and less than 0.1 µM on Cbl-b [6].

On to `Cn1cnnc1CC1(c2cccc(N3Cc4c(cc(CN5Cc6cccnc6C5)cc4C(F)(F)F)C3=O)c2)COC1` [Example 660, 6-((5,7-dihydro-6H-pyrrolo[3,4-b]pyridin-6-yl)methyl)-2-(3-(3-((4-methyl-4H-1,2,4-triazol-3-yl)methyl)oxetan-3-yl)phenyl)-4-(trifluoromethyl)isoindolin-1-one], for which the fold induction at 1 µM was more than 1 with T-cell [1], 1.31 to 1.5 in the experiment with T-cell [2], more than 7.5 with T-cell [3] and more than 0.201 with T-cell [5]. Moreover, the fold induction at 0.3 µM fell in the range of 1.31 to 1.5 with T-cell [2] and 2.51 to 5 in the experiment with T-cell [3]. Moreover, the IC50 at Cbl-b [4] was not above 0.1 µM; on Cbl-b [6], less than 0.1 µM.

As for `Cn1cnnc1CC1(c2cccc(N3Cc4c(cc(CN5CC[C@H](c6ccccc6)C5)cc4C(F)(F)F)C3=O)c2)COC1` [Example 662a, (R)-2-(3-(3-((4-methyl-4H-1,2,4-triazol-3-yl)methyl)oxetan-3-yl)phenyl)-6-((3-phenylpyrrolidin-1-yl)methyl)-4-(trifluoromethyl)isoindolin-1-one], the fold induction at 1 µM with T-cell [1] is 0.801 to 1; with T-cell [2], 1.01 to 1.3; in the experiment on T-cell [3], more than 7.5; in the experiment on T-cell [5] it was more than 0.201. For the same molecule, the results for the fold induction at 0.3 µM with T-cell [2] and with T-cell [3] were 1.01 to 1.3 and 5 to 7.5, respectively. The results for the IC50 at Cbl-b [4] and at Cbl-b [6] were not above 0.1 µM and less than 0.1 µM, respectively.

For the molecule `C[C@H]1CN(Cc2cc3c(c(C(F)(F)F)c2)CN(c2cccc(C4(Cc5nncn5C)COC4)c2)C3=O)CCO1` [Example 663a, (S)-2-(3-(3-((4-methyl-4H-1,2,4-triazol-3-yl)methyl)oxetan-3-yl)phenyl)-6-((2-methylmorpholino)methyl)-4-(trifluoromethyl)isoindolin-1-one], the fold induction at 1 µM was more than 1 in the experiment with T-cell [1], 1.31 to 1.5 in the experiment on T-cell [2], more than 7.5 in the experiment on T-cell [3] and more than 0.201 with T-cell [5]. Further, the fold induction at 0.3 µM in the experiment on T-cell [2] lay within 1.31 to 1.5; in the experiment on T-cell [3] it was 5 to 7.5. Also, the IC50 was not above 0.1 µM at Cbl-b [4] and less than 0.1 µM on Cbl-b [6].

As for `C[C@H](c1cc2c(c(C(F)(F)F)c1)CN(c1cccc(C3(Cc4nncn4C)COC3)c1)C2=O)N1CC(F)C1` [Example 668a, (R)-6-(1-(3-fluoroazetidin-1-yl)ethyl)-2-(3-(3-((4-methyl-4H-1,2,4-triazol-3-yl)methyl)oxetan-3-yl)phenyl)-4-(trifluoromethyl)isoindolin-1-one], the fold induction at 1 µM in the experiment with T-cell [1] is more than 1; with T-cell [2], 1.51 to 1.75; in the experiment with T-cell [3] it was 5 to 7.5; with T-cell [5], 0.101 to 0.15. Further, the fold induction at 0.3 µM in the experiment on T-cell [2] was in the range of 1.31 to 1.5; in the experiment with T-cell [3], 2.51 to 5. Besides, the IC50 at Cbl-b [4] was not above 0.1 µM; at Cbl-b [6], less than 0.1 µM.

For `C[C@@H](c1cc2c(c(C(F)(F)F)c1)CN(c1cccc(C3(Cc4nncn4C)COC3)c1)C2=O)N1CC(F)C1` [Example 668b, (S)-6-(1-(3-fluoroazetidin-1-yl)ethyl)-2-(3-(3-((4-methyl-4H-1,2,4-triazol-3-yl)methyl)oxetan-3-yl)phenyl)-4-(trifluoromethyl)isoindolin-1-one], the fold induction at 1 µM was more than 1 in the experiment with T-cell [1], 1.51 to 1.75 with T-cell [2], more than 7.5 with T-cell [3] and 0.151 to 0.2 in the experiment on T-cell [5]. Moreover, the fold induction at 0.3 µM is 1.31 to 1.5 in the experiment with T-cell [2] and 5 to 7.5 with T-cell [3]. The IC50 is not above 0.1 µM on Cbl-b [4] and less than 0.1 µM on Cbl-b [6].
